According to patent US10407395B2, “Benzimidazole compound and medical use thereof” (Sumitomo Dainippon Pharma Co., Ltd., priority 2015, dated 2019):
Where two headings read alike, the source gives them in different places.

Target: human SCN9A (Nav 1.7) (Homo sapiens, UniProt Q15858)
Test: Measurement of Na ion current (Nav 1.7) by automated patch clamp assay in cells stably-expressing human SCN9A
Format: cell-based
Conditions: read-out: Inhibitory rate (%) of Na ion current
Procedure: Measurement of Na Ion Current in Voltage-Dependent Na Channel Gene Expressed Cell Nav 1.7 current was measured by automated patch clamp assay using cells stably-expressing human SCN9A. Cells Stably-expressing Human SCN9A Tetracycline-induced cells stably-expressing SCN9A were obtained from ChanTest Corporation. […] Next day, the Na ion current was measured by automated patch clamp assay. Electrophysiologic Measurement of Na Ion Current The Na ion current was measured by automated patch clamp assay using the following extracellular solution and intracellular solution. […] The control of the stimulating pulse and the data acquisition were carried out using EPC10 amplifier and Patch Master Software (HEKA). Data were sampled at 10 kHz, and low-pass filtered at 3 kHz. All the measurements were carried out at room temperature. […] The inhibitory rate of the Na ion current by the test compounds was calculated according to the following calculating formula with the peak current value generated by the depolarizing pulse. […] The inhibitory rate of Na ion current by each Example Compound was evaluated.

[1] = compound concentration 10 μmol/L, holding potential inactivating 50% Nav 1.7 channel (around −60 mV)

Chain of human SCN9A (Nav 1.7) (Q15858 whole entry): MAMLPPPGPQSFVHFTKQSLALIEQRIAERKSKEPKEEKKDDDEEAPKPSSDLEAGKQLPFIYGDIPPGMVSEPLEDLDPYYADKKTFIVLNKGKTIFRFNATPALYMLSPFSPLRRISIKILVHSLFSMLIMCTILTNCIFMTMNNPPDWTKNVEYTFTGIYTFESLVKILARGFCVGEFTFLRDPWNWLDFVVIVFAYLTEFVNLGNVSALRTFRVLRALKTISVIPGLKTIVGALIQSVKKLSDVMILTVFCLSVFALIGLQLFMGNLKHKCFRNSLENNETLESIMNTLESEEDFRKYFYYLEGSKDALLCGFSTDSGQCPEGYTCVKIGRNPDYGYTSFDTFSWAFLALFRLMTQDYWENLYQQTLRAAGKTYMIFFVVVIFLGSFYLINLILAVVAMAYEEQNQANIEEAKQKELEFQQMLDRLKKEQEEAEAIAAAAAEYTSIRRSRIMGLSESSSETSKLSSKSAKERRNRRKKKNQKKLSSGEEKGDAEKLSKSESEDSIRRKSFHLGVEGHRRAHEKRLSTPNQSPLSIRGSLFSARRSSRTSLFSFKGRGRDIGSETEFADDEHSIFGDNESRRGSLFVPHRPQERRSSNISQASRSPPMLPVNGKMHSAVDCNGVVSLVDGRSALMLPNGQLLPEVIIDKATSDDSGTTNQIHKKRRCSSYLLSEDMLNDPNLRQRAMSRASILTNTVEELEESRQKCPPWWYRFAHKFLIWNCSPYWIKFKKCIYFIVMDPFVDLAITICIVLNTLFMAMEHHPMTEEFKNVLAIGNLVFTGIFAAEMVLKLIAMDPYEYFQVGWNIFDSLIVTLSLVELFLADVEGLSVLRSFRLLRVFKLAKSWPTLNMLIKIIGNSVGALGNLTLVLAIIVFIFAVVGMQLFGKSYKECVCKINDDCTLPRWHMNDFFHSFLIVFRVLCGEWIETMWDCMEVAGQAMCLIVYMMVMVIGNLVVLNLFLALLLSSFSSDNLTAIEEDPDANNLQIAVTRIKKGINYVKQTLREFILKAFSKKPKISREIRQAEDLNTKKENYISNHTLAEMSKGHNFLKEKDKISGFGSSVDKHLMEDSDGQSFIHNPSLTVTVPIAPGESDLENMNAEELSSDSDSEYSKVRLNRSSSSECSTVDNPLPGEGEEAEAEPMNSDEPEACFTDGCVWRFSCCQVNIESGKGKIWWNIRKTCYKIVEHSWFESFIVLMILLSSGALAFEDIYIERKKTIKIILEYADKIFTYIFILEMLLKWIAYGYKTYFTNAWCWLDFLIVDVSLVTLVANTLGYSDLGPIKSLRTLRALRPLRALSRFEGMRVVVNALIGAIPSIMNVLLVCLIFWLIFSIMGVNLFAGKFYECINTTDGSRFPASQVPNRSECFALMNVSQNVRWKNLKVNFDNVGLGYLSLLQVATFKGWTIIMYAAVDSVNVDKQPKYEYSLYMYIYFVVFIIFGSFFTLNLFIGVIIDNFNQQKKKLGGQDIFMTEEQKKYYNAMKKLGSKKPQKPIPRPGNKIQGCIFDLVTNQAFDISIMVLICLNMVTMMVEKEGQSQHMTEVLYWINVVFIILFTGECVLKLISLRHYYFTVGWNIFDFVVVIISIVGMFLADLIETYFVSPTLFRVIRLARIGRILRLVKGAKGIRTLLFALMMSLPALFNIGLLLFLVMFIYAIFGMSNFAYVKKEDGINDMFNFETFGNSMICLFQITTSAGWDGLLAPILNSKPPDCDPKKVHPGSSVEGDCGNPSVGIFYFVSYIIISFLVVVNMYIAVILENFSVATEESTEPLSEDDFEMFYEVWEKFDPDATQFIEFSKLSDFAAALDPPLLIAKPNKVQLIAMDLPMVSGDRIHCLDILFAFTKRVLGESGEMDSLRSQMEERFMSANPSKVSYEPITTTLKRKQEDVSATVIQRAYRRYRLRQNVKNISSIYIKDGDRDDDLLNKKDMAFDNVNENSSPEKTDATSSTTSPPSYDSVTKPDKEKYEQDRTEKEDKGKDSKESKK

| inhibition at 10 µM [1] [%] | SMILES | other results |
| --- | --- | --- |
| 65 | OC1(Cn2cnc3cc(-c4ccc(Cl)cc4C(F)(F)F)ccc32)COC1 [Example 207] | – |
| 47 | COc1cc(-c2ccc3ncn(CC4(O)COC4)c3c2)cc(C(F)(F)F)c1 [Example 163] | – |
| 83 | CC(C)(O)CCn1cnc2ccc(Oc3ccc(OC(F)(F)F)cc3)cc21 [Example 97] | – |
| 65 | CC(C)(O)Cn1cnc2ccc(-c3ccc(Cl)cc3Cl)cc21 [Example 132] | – |
| 58 | FC(F)(F)c1ccc(-c2ccc3ncn(CCOC4CCCC4)c3c2)nc1 [Example 12, 1-[2-(cyclopentyloxy)ethyl]-6-[5-(trifluoromethyl)pyridin-2-yl]-1H-benzimidazole] | – |
| 53 | OC1(Cn2cnc3ccc(-c4cc(Cl)cc(Cl)c4)cc32)COC1 [Example 158] | – |
| 48 | CC(C)(O)Cn1cnc2ccc(-c3ccc(Cl)cc3F)cc21 [Example 130, 1-[6-(4-chloro-2-fluorophenyl)-1H-benzimidazol-1-yl]-2-methylpropan-2-ol] | – |
| 43 | CC(C)(O)Cn1cnc2cc(-c3cccc(C(F)(F)F)c3)ccc21 [Example 194] | – |
| 44 | OC1(Cn2cnc3ccc(-c4ccc(Cl)cc4C(F)(F)F)cc32)COC1 [Example 151] | – |
| 52 | CC(C)(O)Cn1cnc2cc(-c3ccc(Cl)cc3C(F)(F)F)ccc21 [Example 191] | – |
| 75 | CC(C)(O)Cn1cnc2ccc(-c3ccc(C(F)(F)F)cn3)cc21 [Example 11, 2-methyl-1-{6-[5-(trifluoromethyl)pyridin-2-yl]-1H-benzimidazol-1-yl}propan-2-ol] | – |
| 55 | COc1cc(-c2ccc3c(c2)ncn3CC2(O)COC2)cc(C(F)(F)F)c1 [Example 212] | – |
| 68 | C[C@]1(O)C[C@@H](n2cnc3ccc(Oc4ccc(C(F)(F)F)cc4)cc32)C1 [Example 113] | – |
| 57 | CC(C)(O)Cn1cnc2ccc(Oc3ccc(CC(F)(F)F)cc3)cc21 [Example 104] | – |
| 45 | Cc1cc(Cl)ccc1-c1ccc2c(c1)ncn2CC(C)(C)O [Example 187] | – |
| 15 | CC(C)(O)Cn1cnc2ccc(-c3ccc4ncccc4c3)cc21 [Example 145] | – |
| 69 | CC(C)(O)Cn1cnc2cc(Oc3ncc(C(F)(F)F)cc3F)ccc21 [Example 53, 1-(5-{[3-fluoro-5-(trifluoromethyl)pyridin-2-yl]oxy}-1H-benzimidazol-1-yl)-2-methylpropan-2-ol] | – |
| 70 | CC(C)(O)Cn1cnc2ccc(-c3ccc(C(F)(F)F)cc3Cl)cc21 [Example 136] | – |
| 25 | Cc1ccc(Cl)cc1-c1ccc2ncn(CC3(O)COC3)c2c1 [Example 160] | – |
| 47 | OC1(Cn2cnc3ccc(-c4ccc(C(F)(F)F)cc4Cl)cc32)COC1 [Example 150] | – |
| 13 | COc1ccc(-c2ccc3ncn(CC(C)(C)O)c3c2)cn1 [Example 125] | – |
| 32 | FC(F)(F)c1ccc(-c2ccc3ncn(CC4CCCO4)c3c2)nc1 (stereo not shown) [Example 8] | – |
| 25 | CC(C)(O)CCn1cnc2ccc(Oc3cccc(F)c3)cc21 [Example 98] | – |

| inhibition at 10 µM [1] [%] | SMILES | other results |
| --- | --- | --- |
| – | CC(C)(O)Cn1cnc2ccc(-c3ccc(N4CCOCC4)nc3)cc21 [Example 127] | inhibition at 100 µM (compound concentration 100 μmol/L (footnoted examples), holding potential inactivating 50% Nav 1.7 channel (around −60 mV)): 16% |
| 23 | CC(C)(O)Cn1cnc2cc(-c3ccc(S(C)(=O)=O)cc3C(F)(F)F)ccc21 [Example 193] | – |
| 78 | CC(C)(O)Cn1cnc2cc(-c3ccc(C(F)(F)F)cc3Cl)ccc21 [Example 192] | – |
| 19 | CC(C)(O)Cn1cnc2ccc(-c3cnoc3)cc21 [Example 144] | – |
| 25 | OC1(Cn2cnc3ccc(-c4cccc(Cl)c4F)cc32)COC1 [Example 153] | – |
| 51 | OC1(Cn2cnc3ccc(Oc4ccc(Cl)c(Cl)c4)cc32)COC1 [Example 107] | – |
| 50 | OC1(Cn2cnc3ccc(Oc4ccc(Cl)cc4Cl)cc32)COC1 [Example 106] | – |
| 35 | CC(C)(O)Cn1cnc2ccc(-c3cccc(Cl)c3)cc21 [Example 139] | – |
| 45 | CC(C)(O)Cn1cnc2cc(-c3ccc(Cl)cc3Cl)ccc21 [Example 185] | – |
| 57 | CC(C)(O)Cn1cnc2ccc(Oc3ccc(C(F)(F)F)cc3)cc21 [Example 15, 2-methyl-1-{6-[4-(trifluoromethyl)phenoxy]-1H-benzimidazol-1-yl}propan-2-ol] | – |
| 60 | OC1(Cn2cnc3cc(-c4cccc(C(F)(F)F)c4Cl)ccc32)COC1 [Example 217] | – |
| 45 | Cc1c(Cl)cccc1-c1ccc2ncn(CC3(O)COC3)c2c1 [Example 159] | – |
| 85 | Fc1ccc(Oc2ccc3ncn(CC4CCCO4)c3c2)cc1 (stereo not shown) [Example 2, 6-(4-fluorophenoxy)-1-(tetrahydrofuran-2-ylmethyl)-1H-benzimidazole] | – |
| 52 | CC(C)(O)Cn1cnc2ccc(Oc3ccc(CC(F)(F)F)cn3)cc21 [Example 60, 2-methyl-1-(6-{[5-(2,2,2-trifluoroethyl)pyridin-2-yl]oxy}-1H-benzimidazol-1-yl)propan-2-ol] | – |
| – | Cc1ccc(Oc2ccc3ncn(CC(C)(C)O)c3c2)cc1 [Example 14, 2-methyl-1-[6-(4-methylphenoxy)-1H-benzimidazol-1-yl]propan-2-ol] | inhibition at 10 µM: 68% |
| 52 | OC1(Cn2cnc3ccc(-c4ccc(F)c(Cl)c4)cc32)COC1 [Example 154] | – |
| 42 | CC(C)(O)Cn1cnc2cc(-c3ccc(F)c(Cl)c3)ccc21 [Example 190] | – |
| 55 | OC1(Cn2cnc3ccc(-c4ccc(Cl)c(Cl)c4)cc32)COC1 [Example 155] | – |
| 33 | CC(C)(O)Cn1cnc2cc(-c3ccccc3OC(F)(F)F)ccc21 [Example 197] | – |
| 47 | CC(C)(O)CCn1cnc2cc(-c3ccc(C(F)(F)F)cc3F)ccc21 [Example 223] | – |
| 10 | CC(C)(O)CCn1cnc2ccc(Oc3ccc(C(F)(F)F)nc3)cc21 [Example 103] | – |
| 73 | COc1cc(C(F)(F)F)ccc1-c1ccc2c(c1)ncn2CC(C)(C)O [Example 176, 1-{5-[2-methoxy-4-(trifluoromethyl)phenyl]-1H-benzimidazol-1-yl}-2-methylpropan-2-ol] | – |
| 49 | OC1(Cn2cnc3ccc(-c4cc(C(F)(F)F)ccc4F)cc32)COC1 [Example 161] | – |

| inhibition at 10 µM [1] [%] | SMILES | other results |
| --- | --- | --- |
| 45 | CC(C)(O)CCn1cnc2cc(-c3ccc(C(F)(F)F)cc3)ccc21 [Example 221] | – |
| 16 | CC(C)(O)Cn1cnc2cc(-c3ccc(F)cc3)ccc21 [Example 175, 1-[5-(4-fluorophenyl)-1H-benzimidazol-1-yl]-2-methylpropan-2-ol] | – |
| 54 | CC(C)(O)Cn1cnc2cc(-c3ccc(N4CCOCC4)cc3)ccc21 [Example 177] | – |
| 39 | CC(C)(O)Cn1cnc2ccc(-c3ccc(F)cc3)cc21 [Example 5, 1-[6-(4-fluorophenyl)-1H-benzimidazol-1-yl]-2-methylpropan-2-ol] | – |
| 53 | CC(C)(O)Cn1cnc2ccc(-c3cccc(OC(F)(F)F)c3)cc21 [Example 141] | – |
| 29 | CC(C)(O)Cn1cnc2ccc(-c3ccc(S(C)(=O)=O)cc3F)cc21 [Example 135] | – |
| 45 | OC1(Cn2cnc3ccc(Oc4ccc(C(F)(F)F)cn4)cc32)COC1 [Example 56, 3-[(6-{[5-(trifluoromethyl)pyridin-2-yl]oxy}-1H-benzimidazol-1-yl)methyl]oxetan-3-ol] | – |
| 84 | Cc1c(-c2ccc3c(c2)ncn3CC2(O)COC2)cccc1C(F)(F)F [Example 215] | – |
| 42 | CC(C)(O)Cn1cnc2cc(-c3cccc(Cl)c3F)ccc21 [Example 189] | – |
| 72 | CC(C)(O)Cn1cnc2ccc(Oc3ccc(C(F)(F)F)nc3)cc21 [Example 25, 2-methyl-1-(6-{[6-(trifluoromethyl)pyridin-3-yl]oxy}-1H-benzimidazol-1-yl)propan-2-ol] | – |
| 26 | OC1(Cn2cnc3cc(-c4ccc(C(F)(F)F)cc4F)ccc32)COC1 [Example 203] | – |
| 40 | CC(C)(O)CCn1cnc2cc(-c3ccc(F)cc3)ccc21 [Example 219] | – |
| 21 | CC(C)(O)Cn1cnc2cc(-c3cnoc3)ccc21 [Example 202] | – |
| 26 | OC1(Cn2cnc3ccc(Oc4ccc5scnc5c4)cc32)COC1 [Example 114] | – |
| 17 | CC(C)(O)Cn1cnc2ccc(-c3ccoc3)cc21 [Example 146] | – |
| 24 | OC1(Cn2cnc3ccc(Oc4ccc(Cl)cc4)cc32)COC1 [Example 91] | – |
| 54 | OC1(Cn2cnc3ccc(-c4ccc(Cl)cc4Cl)cc32)COC1 [Example 156] | – |
| 41 | Cc1cc(-c2ccc3c(c2)ncn3CC2(O)COC2)cc(C(F)(F)F)c1 [Example 213] | – |
| 46 | CC(C)(O)Cn1cnc2cc(Oc3ncc(C(F)(F)F)cn3)ccc21 [Example 52, 2-methyl-1-(5-{[5-(trifluoromethyl)pyrimidin-2-yl]oxy}-1H-benzimidazol-1-yl)propan-2-ol] | – |
| 31 | OC1(Cn2cnc3ccc(Oc4ccc5ncccc5c4)cc32)COC1 [Example 115] | – |
| 34 | CC(C)(O)Cn1cnc2ccc(-c3ccccc3Cl)cc21 [Example 138] | – |
